Test results as given in US12070483B2, “Compositions and methods for treatment of acute lung injury” (THE TRUSTEES OF THE UNIVERSITY OF PENNSYLVANIA, priority 2018, dated 2024).
Each block holds one sequence with its values, some of them ahead of it.

Assays:
[1] = tested on: NADPH oxidase (NOX2); experiment: H2O2 production (Amplex red) of perfused lung 5 min after PIP-2 in saline or liposomes; format: in vivo, mouse; settings: IT or IV
Method: FIGS. 1A and 1B: Wild type C57Bl/6 mice at age 8-10 weeks were injected with 2 ug/g body wt of PIP-2 either through an intratracheal catheter (IT) or intravenously (IV). The injected peptide was dissolved in saline or was incorporated into unilamellar liposomes consisting of dipalmitoyl phosphatidylcholine (DPPC), egg phosphatidylcholine (PC), phosphatidylglycerol (PG), and cholesterol (molar ratio of lipids, 50:25:10:15). […] Mice were sacrificed after 5 min, lungs were perfused until cleared of blood, and then subjected to recirculating perfusion under temperature-controlled (37° C.) conditions in the presence of the fluorescent indicator Amplex red plus horseradish peroxidase (HRP) in order to monitor the oxidation of Amplex red by H2O2. The fluorescence of aliquots of perfusate was measured at the indicated times and expressed as arbitrary fluorescence units (AFU). The increasing fluorescence with time of perfusion indicates the production of H2O2 reflecting the activation of cellular NADPH oxidase (NOX2).
The lungs were removed from mice and studied in an isolated system. The slope of the lines indicates the production of oxidants (H2O2).

[2] = tested on: mice, intraperitoneal LPS; experiment: Intraperitoneal LPS (15 μg/g) model of ALI with systemic sepsis: survival; settings: LPS 15 μg/g IP
Method: (§1) LPS (15 mg/g body wt) was given to all mice either by: FIG. 7A: intratracheal (IT) or FIG. 7B: intraperitoneal (IP) injection. PIP-2 in liposomes or placebo (liposomes alone) was administered intravenously (IV) 12 h after LPS (this is treatment time zero) and then at 12 or 24 h intervals for a total of 5 doses as indicated by the arrows. FIG. 7A: PIP-2 at 2 μg/g body wt; N=14 for each group. FIG. 7B: PIP-2 at 2 or 20 μg/g body wt.; Placebo group, n=8; PIP-2 2 mg group, n=7; PIP-2 20 mg group, n=10.
(§2) Anesthesized mice were administered LPS (either 5 or 15 μgig body weight) in 20 μl saline that was instilled into the lung through an endotracheal catheter placed at the level of the tracheal carina. […] PIP-2 in liposomes was suspended in 20 μl saline for IV or IT injection. For studies to evaluate the effect of PIP-2 at zero time, LPS administration was followed by liposomes±PIP-2 also given by IT instillation. For studies to evaluate the effect of PIP-2 administered at later times after LPS, the liposomes±PIP-2 were given by injection into a retinal artery. This shift in route of administration was used to minimize damage to the mouse trachea that could occur with repeated tracheostomy and lead to untoward effects on the lung. […] We gave the second dose of PIP-2 at 12 h to be certain of maximal coverage and then went to every 24 h for PIP-2 administration. For the model of sepsis, LPS (15 μg/g body wt.) in 20 μl saline was injected intraperitoneally and mice were treated with IV PIP-2 at either 2 or 20 μg/g body wt; note that the initial dose of PIP-2 for this sepsis model was IV, not IT. We used the same times of PIP-2 administration in the sepsis model as were used for the IT LPS model. After recovery from anesthesia, all mice were maintained in the vivarium with access ad lib to food and water.
We next evaluated the effect of PIP-2 in mice given LPS (15 μg LPS/g body wt.) by the intraperitoneal route as a model for ALI associated with systemic sepsis.

[3] = tested on: NOX2; experiment: ROS production (Amplex red) of isolated perfused mouse lung stimulated with angiotensin II; format: in vivo; settings: for ROS production by AngII-activated NOX2 in the isolated mouse lung: ex_vivo
Method: FIGS. 5A and 5B: PIP-2, incorporated within liposomes, was instilled intratracheally prior to lung isolation. FIG. 5A: Isolated lungs were perfused in a recirculating system with artificial medium. NOX2 activity was stimulated by addition of angiotensin II (Ang II). Amplex red along with horseradish peroxidase were added to the perfusate for detection of ROS production. Aliquots of perfusate were analyzed at intervals by spectrophotometry to determine oxidation of amplex red, indicating ROS production. Results are mean±SE for N=3-4. FIG. 5B: Mice were sacrificed at 6, 12, or 24 h after LPS administration ([…]) and lungs were perfused in situ for 15 min with saline solution containing a fluorophore (difluorofluorescein diacetate, DFFDA). Lungs then were homogenized and fluorescence of the lung homogenate was determined as an index of ROS production. Results for FIG. 5A & FIG. 5B are mean±SE for N=4. *P<0.05 vs corresponding LPS and LPS+PIP-2; § P<0.05 vs 12 h and 24 h LPS; ΔP<0.05 vs corresponding LPS.
FIG. 8: PLA2 inhibitory peptide (PIP-2) inhibits ROS production stimulated by angiotensin II (Ang II) in isolated perfused mouse lung. PIP-2 (2 μg/g body weight) was administered to intact wild type (WT) mice by the IV route. […] After 30 mins, lungs were isolated from anesthesized mice and perfused in a recirculating system with added Ang II ([…]) as a Nox2 activator and Amplex red plus horseradish peroxidase to detect perfusate ROS. WT basal lungs were not stimulated with Ang II. After a 15 min equilibration period (called zero time), aliquots were taken at 15 min intervals for analysis of fluorescence. Each plotted point represents the mean±SE for n=3. The lines were drawn by the least mean squares method. The mean rates of ROS […] calculated from the slope of each line are indicated in parentheses. *P<0.05 vs the other 3 slopes.
FIG. 10: Effect of liposome composition on delivery of PIP-2 to lungs after IV administration. […]
The effect of the PIPs on ROS production in control (untreated) lungs was determined in vitro with isolated perfused lungs. […] The basal rate of ROS production was evaluated with WT lungs that were perfused in the absence of AngII. […] Aliquots of perfusate were taken at 15 min intervals and analyzed by fluorescence for resorufin (λexcitation 568 nm, λemission 581 nm), the product of Amplex red oxidation. The rate of Amplex red oxidation was calculated and expressed as arbitrary fluorescence units (AFU) with normalization to mouse body wt. There was a low rate of Amplex red oxidation in the absence of HRP in the perfusate (˜7% of the AngII-stimulated fluorescence), indicating a non-ROS-mediated oxidation of the fluorophore; this value was subtracted to obtain the reported values.

[4] = target: T1, recombinant hPrdx6 (Homo sapiens, UniProt P30041); experiment: aiPLA2 activity of recombinant human Prdx6 in presence of peptide; format: biochemical; settings: for aiPLA2 activity of human recombinant protein: Table 2, hPrdx6 only 92.0
T1 sequence (P30041 1-224): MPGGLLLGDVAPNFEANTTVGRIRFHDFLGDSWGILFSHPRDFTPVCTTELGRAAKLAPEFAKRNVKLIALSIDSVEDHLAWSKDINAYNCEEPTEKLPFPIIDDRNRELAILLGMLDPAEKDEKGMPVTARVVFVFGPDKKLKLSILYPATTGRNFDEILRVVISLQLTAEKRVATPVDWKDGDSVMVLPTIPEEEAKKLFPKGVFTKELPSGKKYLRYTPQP

[5] = tested on: mice, high dose IT LPS; experiment: High dose intratracheal LPS (15 μg/g): survival and lung injury of survivors
Method: as §1, §2
At the end of each experiment with IT LPS (at either 24 or 120 h), surviving mice were sacrificed by exsanguination under anesthesia. Lungs in situ were cleared of blood by perfusion through the pulmonary artery and then were lavaged through the trachea with saline. The lung was then removed from the thorax for tissue assays. We evaluated the effect of LPS on lung injury by measuring the number of nucleated cells and the protein content in the lung bronchoalveolar lavage fluid (BALf), the lung wet to dry lung weight ratio using the left upper lobe of lung, and thiobarbituric-acid reactive products (TBARS), 8-isoprostanes, and protein carbonyls in the lung homogenate to determine the oxidation of lung tissue lipid and protein components. For studies of mouse mortality, survival plots were constructed using the Kaplan-Meier estimator.
The survival data is plotted with the initial PIP-2 treatment as 0 time; LPS was administered 12 h before PIP-2 (−12 h that is off of the graph in FIG. 7A and FIG. 7B).
Mice were instilled IT with LPS (15 μg/g wt); PIP-2 (2 μg/g body wt) in liposomes was injected (IV) at the times shown in FIG. 7A. Five of the surviving mice were sacrificed at 120 h after LPS; control mice were given liposomes but not LPS. […] Values are mean±SE for N=4 for control and N=5 for LPS+PIP-2.

Sequence: LHDFRHQIL (Inhibitory peptide.) [PIP-2]
generation of H2O2 ([1]; PIP-2 2 ug/g in liposomes): markedly inhibits
effect on the rate of H2O2 production ([1]; PIP-2 2 ug/g in saline): no effect
mice fully recovered ([2]; PIP-2 2 μg/g IV): 43%
survival at 36 h after LPS ([2]; PIP-2 2 μg/g IV, placebo 100% dead by 48 h): 86%
long term survival rate ([2]; PIP-2 20 μg/g IV): 70%
inhibition of ROS production ([3]; PIP-2 2 μg/g in liposomes IV, WT lungs, Ang II 50 μM): ~75%
ROS production by AngII-activated NOX2 in the isolated mouse lung [3]: inhibit ROS production
aiPLA2 activity of human recombinant protein [4]: 29.9 nmol/min/mg prot.
aiPLA2 activity of human recombinant Prdx6 ([4]; Table 3, hPrdx6 only 99.91): 26.18 nmol/min/mg prot.
lungs of PIP-2 treated mice that survive high dose LPS ([5]; LPS 15 μg/g IT or IP, PIP-2 2 or 20 μg/g IV, 5 days after LPS): normal lungs
BALf cells ([5]; LPS 15 μg/g IT, PIP-2 2 μg/g IV in liposomes 5 doses, survivors sacrificed 120 h after LPS, control 0.95): 0.96 ± 0.40 ×10^4/g body wt.
Wet/Dry ratio ([5]; LPS 15 μg/g IT, PIP-2 2 μg/g IV, survivors at 120 h after LPS, control 5.59): 5.34 ± 0.03
Protein carbonyls ([5]; LPS 15 μg/g IT, PIP-2 2 μg/g IV, survivors at 120 h after LPS, control 5.6): 5.6 ± 0.2 nmol/mg prot
8-Isoprostanes ([5]; LPS 15 μg/g IT, PIP-2 2 μg/g IV, survivors at 120 h after LPS, control 34): 34 ± 3 pmol/mg prot
BALf protein ([5]; LPS 15 μg/g IT, PIP-2 2 μg/g IV, survivors at 120 h after LPS, control 75): 78 ± 2.2 μg/g wt
TBARS ([5]; LPS 15 μg/g IT, PIP-2 2 μg/g IV, survivors at 120 h after LPS, control 76): 77 ± 1 pmol/mg prot
mortality ([5]; LPS 15 μg/g IT, PIP-2 2 μg/g IV at 12, 24, 48, 72, 96 h after LPS, at 36 h after start of treatment, no further mortality, placebo 100% by 48 h): 17%
survival ([5]; LPS 15 μg/g IT, PIP-2 2 μg/g IV, at 36 h after start of treatment): 83%

aiPLA2 activity of human recombinant protein [4]: 32.3 nmol/min/mg prot.
Sequence: LYEIKHQIL (Inhibitory peptide.) [PIP-4]
ROS production by AngII-activated NOX2 in the isolated mouse lung [3]: inhibit ROS production
